In ChEMBL document CHEMBL1143870, “A new insight into solid-state conformation of macrolide antibiotics” (Bioorg Med Chem, 2008):

Assays:
[1] = Oral bioavailability in human at 500 mg administered as single dose; assay type: ADME, organism-based; conditions: in vivo
[2] = Cmax in human at 500 mg, po administered as single dose; assay type: ADME, organism-based; set-up: dose 500 mg, route oral; conditions: in vivo
[3] = Tmax in human at 500 mg, po administered as single dose; assay type: ADME, organism-based; conditions: in vivo
Homo sapiens [4] = assay: AUC in human at 500 mg, po administered as single dose; assay type: ADME, organism-based, Plasma; conditions: in vivo
[5] = Elimination half life in human at 500 mg, po administered as single dose; assay type: ADME, organism-based; conditions: in vivo
[6] = Lipophilicity, log D at pH 8.0; assay type: physicochemical; conditions: buffer
[7] = Cmax in human at 150 mg, po administered as single dose; assay type: ADME, organism-based; set-up: dose 150 mg, route oral; conditions: in vivo
[8] = Tmax in human at 150 mg, po administered as single dose; assay type: ADME, organism-based; conditions: in vivo
Homo sapiens [9] = assay: AUC in human at 150 mg, po administered as single dose; assay type: ADME, organism-based, Plasma; conditions: in vivo
[10] = Elimination half life in human at 150 mg, po administered as single dose; assay type: ADME, organism-based; conditions: in vivo
[11] = Oral bioavailability in human at 150 mg administered as single dose; assay type: ADME, organism-based; conditions: in vivo

| bioavailability [1] | Cmax [2] | Tmax [3] | AUC (Homo sapiens [4]) | half-life [5] | logD [6] | Cmax [7] | Tmax [8] | AUC (Homo sapiens [9]) | half-life [10] | bioavailability [11] | SMILES |
| --- | --- | --- | --- | --- | --- | --- | --- | --- | --- | --- | --- |
| 18% | 1900 ng/mL | 1 h | 5800 ng·h/mL | 1.5 h |  |  |  |  |  |  | CC[C@H]1OC(=O)[C@H](C)[C@@H](O[C@H]2C[C@](C)(OC)[C@H](O)[C@@H](C)O2)[C@H](C)[C@@H](O[C@@H]2O[C@@H](C)C[C@@H](N(C)C)[C@@H]2O)[C@](C)(O)C[C@@H](C)C(=O)[C@H](C)[C@@H](O)[C@]1(C)O [ERYTHROMYCIN A DIHYDRATE] |
| 55% | 2410 ng/mL | 2 h | 18900 ng·h/mL | 4.9 h | 3.9 |  |  |  |  |  | CC[C@H]1OC(=O)[C@H](C)[C@@H](O[C@H]2C[C@@](C)(OC)[C@@H](O)[C@H](C)O2)[C@H](C)[C@@H](O[C@@H]2O[C@H](C)C[C@H](N(C)C)[C@H]2O)[C@](C)(OC)C[C@@H](C)C(=O)[C@H](C)[C@@H](O)[C@]1(C)O [CLARITHROMYCIN] |
|  |  |  |  |  | 2.5 | 7900 ng/mL | 2.2 h | 81000 ng·h/mL | 10.5 h | 72% | CC[C@H]1OC(=O)[C@H](C)[C@@H](O[C@H]2C[C@@](C)(OC)[C@@H](O)[C@H](C)O2)[C@H](C)[C@@H](O[C@@H]2O[C@H](C)C[C@H](N(C)C)[C@H]2O)[C@](C)(O)C[C@@H](C)/C(=N\OCOCCOC)[C@H](C)[C@@H](O)[C@]1(C)O [ROXITHROMYCIN] |
